Source: ChEMBL document CHEMBL1201862, “PubChem BioAssay data set” (2004)
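Test compounds were applied to cells in 96-well plates for 48 hours at 5 doses. Abbreviation: GI50, concentration required for 50% inhibition of growth.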 The source made the active and inactive calls. No stated cut-off is given here; in the data, active = GI50 up to about 1.1 µM and inactive = higher.

Tests used:
Test in all cases: growth of human tumour cells (NCI), 48 h
SNB-19 = tested on: SNB-19
EKVX = tested on: EKVX
SK-OV-3 = tested on: SK-OV-3
UACC-257 = tested on: UACC-257
LOX IMVI = tested on: LOX IMVI
SN12C = tested on: SN12C
NCI-H460 = tested on: NCI-H460
SK-MEL-2 = tested on: SK-MEL-2
M14 = tested on: M14
CAKI-1 = tested on: CAKI-1
OVCAR-3 = tested on: OVCAR-3
NCI-H522 = tested on: NCI-H522
SNB-75 = tested on: SNB-75
RXF 393 = tested on: RXF 393
HCT-116 = tested on: HCT-116
CCRF-CEM = tested on: CCRF-CEM
IGROV-1 = tested on: IGROV-1
SR = tested on: SR

Measured: GI50

CCOC(=O)C(c1ccsc1)P(=O)(OCC)OCC (stereo not given)
inactive: SNB-19 21.5 µM | EKVX 23.9 µM | SK-OV-3 23 µM | UACC-257 15.4 µM | LOX IMVI 6.5 µM | SN12C 13.3 µM | NCI-H460 14.9 µM | SK-MEL-2 20 µM | M14 12.9 µM | CAKI-1 14.1 µM | OVCAR-3 13.7 µM | NCI-H522 3.89 µM | SNB-75 24.1 µM | RXF 393 13.1 µM | HCT-116 11.5 µM

Clc1ccc(-c2nnc3c4nnc(-c5ccc(Cl)cc5Cl)n4c4ccccc4n23)c(Cl)c1
inactive: SNB-19 63.5 µM | EKVX > 100 µM | CCRF-CEM > 100 µM | SK-OV-3 > 100 µM | UACC-257 > 100 µM | LOX IMVI > 100 µM | SN12C > 100 µM | NCI-H460 > 100 µM | SK-MEL-2 > 100 µM | M14 > 100 µM | CAKI-1 > 100 µM | IGROV-1 > 100 µM | OVCAR-3 > 100 µM | NCI-H522 > 100 µM | SNB-75 26.5 µM | RXF 393 > 100 µM | HCT-116 > 100 µM

COC(=O)/C(=N\NC(N)=O)C(C#N)c1ccccc1 (stereo not given)
inactive: SNB-19 > 100 µM | EKVX > 100 µM | CCRF-CEM > 100 µM | SK-OV-3 > 100 µM | UACC-257 > 100 µM | LOX IMVI > 100 µM | SN12C > 100 µM | NCI-H460 > 100 µM | SK-MEL-2 > 100 µM | M14 > 100 µM | OVCAR-3 > 100 µM | NCI-H522 > 100 µM | SNB-75 > 100 µM | RXF 393 > 100 µM | HCT-116 > 100 µM

Cc1c2ccccc2cc2ccc3oc([N+](=O)[O-])cc3c12
inactive: SNB-19 > 100 µM | EKVX 81.7 µM | CCRF-CEM > 100 µM | SK-OV-3 > 100 µM | UACC-257 > 100 µM | LOX IMVI > 100 µM | SN12C > 100 µM | NCI-H460 6.19 µM | SK-MEL-2 5.47 µM | M14 4.46 µM | CAKI-1 > 100 µM | IGROV-1 > 100 µM | OVCAR-3 > 100 µM | SNB-75 > 100 µM | RXF 393 > 100 µM | HCT-116 > 100 µM

CC(C)=CCC/C(C)=C/Cc1c(O)c(C)cc2c1[nH]c1cc(O)ccc12
inactive: SNB-19 > 25 µM | CCRF-CEM > 25 µM | SK-OV-3 > 25 µM | LOX IMVI > 25 µM | SN12C > 25 µM | NCI-H460 > 25 µM | SK-MEL-2 > 25 µM | M14 > 25 µM | IGROV-1 > 25 µM | OVCAR-3 > 25 µM | NCI-H522 > 25 µM | RXF 393 > 25 µM | SR > 25 µM | HCT-116 > 25 µM

COc1ccc(/C=C2\N=C(c3ccccc3)OC2=O)c(OCc2ccccc2)c1
inactive: SNB-19 28.4 µM | EKVX > 100 µM | CCRF-CEM 14.3 µM | UACC-257 > 10 µM | LOX IMVI 39.3 µM | SN12C > 100 µM | NCI-H460 53 µM | M14 49.7 µM | CAKI-1 85.1 µM | IGROV-1 18.8 µM | OVCAR-3 19 µM | NCI-H522 24.6 µM | SR 21.7 µM | HCT-116 49.3 µM

O/N=C1\CCCCC1C(NO)c1ccccc1 (stereo not given)
inactive: SNB-19 > 100 µM | EKVX > 100 µM | CCRF-CEM > 100 µM | SK-OV-3 > 100 µM | UACC-257 > 100 µM | LOX IMVI > 100 µM | SN12C > 100 µM | NCI-H460 > 100 µM | SK-MEL-2 > 100 µM | M14 > 100 µM | IGROV-1 > 100 µM | OVCAR-3 > 100 µM | NCI-H522 81.5 µM | SNB-75 23.7 µM | RXF 393 > 100 µM | HCT-116 > 100 µM

CC(Oc1ccc(OCC2CCCCC2)cc1)C(N)=O (stereo not given)
inactive: CCRF-CEM > 100 µM | SK-OV-3 > 100 µM | UACC-257 72.3 µM | LOX IMVI > 100 µM | SN12C > 100 µM | NCI-H460 > 100 µM | SK-MEL-2 > 100 µM | M14 > 100 µM | OVCAR-3 > 100 µM | NCI-H522 87.9 µM | SNB-75 > 100 µM | HCT-116 > 100 µM

Cc1ccc(C(=O)CC2(O)C(=O)Nc3c(C)cc(Cl)cc32)cc1 (stereo not given)
inactive: SNB-19 > 100 µM | EKVX > 100 µM | CCRF-CEM > 100 µM | SK-OV-3 > 100 µM | UACC-257 > 100 µM | LOX IMVI > 100 µM | SN12C > 100 µM | NCI-H460 > 100 µM | SK-MEL-2 > 100 µM | M14 > 100 µM | CAKI-1 > 100 µM | OVCAR-3 > 100 µM | NCI-H522 > 100 µM | SNB-75 47.9 µM | RXF 393 > 100 µM

CCOC(=O)C(Cc1c(C=O)[nH]c2ccccc12)(NC(=O)c1ccccc1)C(=O)OCC
inactive: SNB-19 4.93 µM | EKVX 18.5 µM | CCRF-CEM 6.87 µM | SK-OV-3 23.9 µM | UACC-257 16.9 µM | SN12C 13.2 µM | NCI-H460 24.3 µM | SK-MEL-2 16.5 µM | M14 17 µM | IGROV-1 20.4 µM | OVCAR-3 13 µM | RXF 393 11 µM | SR > 100 µM

c1ccc(CSc2nc3ccccc3nc2-c2cccs2)cc1
inactive: SNB-19 > 100 µM | EKVX > 100 µM | CCRF-CEM 92.9 µM | SK-OV-3 > 100 µM | UACC-257 > 100 µM | SN12C > 100 µM | NCI-H460 > 100 µM | SK-MEL-2 > 100 µM | M14 > 100 µM | IGROV-1 > 100 µM | OVCAR-3 > 100 µM | NCI-H522 41.3 µM | SNB-75 > 100 µM | HCT-116 > 100 µM

Cc1ccccc1NC(=O)c1cc(-c2ccc([N+](=O)[O-])cc2)nc(S)n1
inactive: SNB-19 > 100 µM | EKVX > 100 µM | CCRF-CEM > 10 µM | SK-OV-3 > 100 µM | UACC-257 > 100 µM | LOX IMVI > 100 µM | SN12C > 100 µM | NCI-H460 > 100 µM | SK-MEL-2 > 100 µM | M14 > 100 µM | CAKI-1 > 100 µM | IGROV-1 > 100 µM | OVCAR-3 > 100 µM | RXF 393 > 100 µM | HCT-116 > 100 µM

O=C(/C=C/c1ccc(O)c(O)c1)OC1C[C@@](O)(C(=O)O)C[C@@H](O)[C@H]1OC(=O)/C=C/c1ccc(O)c(O)c1 (stereo not given in full)
inactive: EKVX > 100 µM | CCRF-CEM > 100 µM | SK-OV-3 > 100 µM | UACC-257 > 100 µM | LOX IMVI > 100 µM | NCI-H460 > 100 µM | SK-MEL-2 > 100 µM | M14 > 100 µM | IGROV-1 > 100 µM | OVCAR-3 > 100 µM | NCI-H522 > 100 µM | RXF 393 > 100 µM | SR > 100 µM | HCT-116 > 100 µM
